Measurements from the NIST ThermoML archive (doi:10.1021/je049559v).
Several values for one entry are separate records, joined by “and”; a condition that tells them apart may be missing. Equal entries are not always repeated.

Conditions: Liquid; for viscosity: Capillary tube (Ostwald / Ubbelohde) method; for mass density: Vibrating tube method

COCOC [dimethoxymethane]
Conditions	mass density [kg/m3]	viscosity
218.09 K	–	1.263 mPa·s
223.09 K	–	1.099 mPa·s
228.1 K	–	0.9649 mPa·s
228.11 K	–	0.9648 mPa·s
233.1 K	–	0.8557 mPa·s and 0.8556 mPa·s
233.16 K	935.5	–
238.11 K	–	0.7648 mPa·s
243.14 K	–	0.6886 mPa·s
243.15 K	–	0.6885 mPa·s
243.16 K	923.8	–
248.14 K	–	0.6248 mPa·s
253.13 K	–	0.5705 mPa·s
253.14 K	–	0.5705 mPa·s
253.16 K	912.4	–
258.12 K	–	0.524 mPa·s
258.15 K	–	0.5238 mPa·s
263.07 K	–	0.4841 mPa·s
263.09 K	–	0.4839 mPa·s
263.15 K	899.6	–
268.09 K	–	0.4489 mPa·s
273.05 K	–	0.4183 mPa·s
273.15 K	886	–
278.05 K	–	0.3912 mPa·s
283.1 K	–	0.3669 mPa·s
283.15 K	872.3	–
288.17 K	–	0.3452 mPa·s and 0.3451 mPa·s
293.09 K	–	0.3262 mPa·s
293.15 K	858.1	–
298.12 K	–	0.3086 mPa·s
298.13 K	–	0.3086 mPa·s
303.12 K	–	0.2927 mPa·s
303.13 K	–	0.2927 mPa·s
303.15 K	842.8	–
308.16 K	–	0.2781 mPa·s
308.17 K	–	0.2781 mPa·s
313.15 K	827.9	–
313.16 K	–	0.2647 mPa·s
318.16 K	–	0.2524 mPa·s
318.17 K	–	0.2524 mPa·s
323.15 K	–	0.241 mPa·s and 0.2409 mPa·s
323.16 K	814.1	–
328.14 K	–	0.2303 mPa·s
333.14 K	–	0.2202 mPa·s
333.15 K	800	0.2202 mPa·s
338.15 K	–	0.2107 mPa·s
343.15 K	785.2	0.2017 mPa·s
348.16 K	–	0.1931 mPa·s
353.12 K	–	0.185 mPa·s
353.13 K	–	0.185 mPa·s
353.16 K	770.8	–
358.16 K	–	0.1771 mPa·s
363.11 K	755.9	–
363.15 K	–	0.1696 mPa·s
368.14 K	–	0.1624 mPa·s
368.16 K	–	0.1623 mPa·s
373.14 K	–	0.1554 mPa·s
378.15 K	–	0.1486 mPa·s
383.15 K	–	0.142 mPa·s
383.16 K	–	0.142 mPa·s
